Data taken from PMC12108296, “Physicochemical Characterization of Kynurenine Pathway Metabolites” (Antioxidants, 2025).
“And” between values parts separate entries of the source, which are not always exact repeats. Equal values may be shown once. Read-outs that look alike come from different tables or passages of the source.

How the values were obtained:
[1] = pH-potentiometric titration (pKa); assay type: physicochemical
Description: An ECO automatic titrator (Metrohm AG, Herisau, Switzerland) with a Metrohm 6.0234.110 combined pH glass electrode was used for the potentiometric titrations under automatic PC control. The electrode was calibrated with aqueous standard buffer solutions. Constant temperature (298.15 ± 0.1 K) was provided by a thermostated double-walled glass cell. Difference titrations were carried out in the absence (blank) and presence of the titrand. First, 2 mL of 0.1 mol/L HCl solutions were titrated with 0.1 mol/L KOH. A constant ionic strength of 0.15 mol/L was provided by the presence of KCl. Next, a titrand was added to the same volume of HCl solution and subsequently titrated with KOH. The initial concentration of the titrand was around between 3 and 6 mmol/L in the titrations. Non-linear parameter fitting provided the dissociation constants from the interpolated volume differences. Potentiometric titrations were performed in triplicates, and the resulting pKa values are reported with ± standard error of the three fitted values.

[2] = 1H NMR-pH titration (macroscopic and microscopic pKa); assay type: physicochemical; details: for pKa: H2O/D2O 95:5 (v/v); for predominant protonation/charge form at physiological pH: physiological pH (7.4), from the determined acid-base constants; for pKaC^A (NMR): second step dissociation microconstant of the aromatic ammonium group; for pKaA^C (NMR): second step dissociation microconstant of the carboxyl group
Description: NMR spectra were recorded on a 400 MHz Varian Mercury Plus spectrometer equipped with a 5 mm Varian 400 Automation Triple Resonance Broadband Pulsed Field Gradient probe at 298.15 ± 0.1 K. The solvent was H2O/D2O 95:5 (v/v), the solution contained around 5 mmol/L titrand, and the ionic strength was adjusted to 0.15 mol/L. The pH values were adjusted with 2–5 mol/L HCl or NaOH (in order to avoid substantial dilution of the solution) and determined in situ by internal indicator molecules optimized for ^1H NMR [27, 28]. The sample volume was 500 μL containing DSS (3-(trimethylsilyl)propane-1-sulfonate) as a chemical shift reference. The H2O ^1H signal was suppressed with a WET sequence; the average acquisition parameters for ^1H measurements are number of transients = 8, number of points = 65,536, acquisition time = 3.33 s, and relaxation delay = 1.5 s. All spectra were processed using the MestReNova v9.0.1-13254 (Mestralab Research, S.L., Santiago de Compostela, Spain) software. NMR-pH titrations were performed once, and resulting pKa values are reported with ± standard error of the model fit.
The corollary of this assumption is not so obvious, however: the aliphatic ^1H NMR signals are relatively close to the aromatic amino group (in terms of covalent distance), especially the methylene group (5 covalent distance), therefore selectivity of aliphatic ^1H NMR signals in favor of aliphatic ammonium and carboxyl dissociation is dubious. This, however, can be exploited: the titration curve of the methylene group thus affords all three macroconstants, including Ka1, Ka2 in the acidic region (Equation (1)), while the aromatic and αCH ^1H NMR signals selectively afford the microconstants KaC^A (second step dissociation microconstant of the aromatic ammonium group), KaA^C (second step dissociation microconstant of the carboxyl group) (Equation (2)). […] Note that Equation (2) in its current form applies to the titration curves of the aromatic signals; for the αCH signal, Equation (2) is rewritten with KaC^A and KaA^C exchanged. For the curve fitting of Equation (2), the macroconstants are treated as fixed parameters transferred from the fitting of Equation (1).(1) δobs=δL+δHL·Ka2·10^−pH+δH2L·Ka1·Ka2·10^−2·pH/1+Ka2·10^−pH+Ka1·Ka2·10^−2·pH (2) δobs=δL·1+KaCA·10^−pH+δHL·KaAC·10^−pH+Ka1·Ka2·10^−2·pH/1+Ka2·10^−pH+Ka1·Ka2·10^−2·pH
The remaining dissociation microconstants (Ka^C and Ka^A) were calculated using Equation (3). Modern theoretical considerations of acid-base microconstant determination can be found in the works of Noszál and Borkovec, while some examples can be found in recent works.(3) pKa1+pKa2=pKaA+pKaAC=pKaC+pKaCA
The titration of 3-hydroxykynurenine (Figure 5) was treated the same way as for kynurenine, with the difference that 3-hydroxykynurenine has an overlapping dissociation in the basic pH region as well (the primary aliphatic ammonium dissociation overlaps with the dissociation of the phenol group). The same principle can be applied to the macro- and microconstant determination of kynurenine; only the last two macroconstants were transferred from potentiometric titration data since the latter is more precise than NMR-pH determined values and the chemical shift response of the methylene group towards the phenol dissociation (6 covalent distance) is not expected to be reliable. Otherwise, the microconstants of the basic pH range (KaACN^O—phenol group, KaACO^N—primary aliphatic ammonium group) were determined by fitting an analog (featuring Ka3 and Ka4) of Equation (2) to the titration data of all ^1H NMR signals. Note that the fitted pKaACN^O falls very close to the calculated pKaAC^N; therefore, to ensure a decreasing sequence of Ka values in every microscopic protonation pathway, an additional constraint was used during fitting: pKaACN^O be greater than the mean of pKa3 and pKa4. […]

ROS = test system: ROS; set-up: method as in PMID 21763768; details: cited from earlier work
UV-pH titration (pKa) = assay type: physicochemical; details: for pKa: aqueous HCl/NaOH solutions of varying pH
Description: UV spectroscopic measurements were carried out on a Jasco V-550 diode-array spectrometer (Jasco Ltd., Tokyo, Japan) with 10 mm quartz cuvettes at 298 K. The titrand was diluted with an acidic (HCl) and a basic (NaOH) stock solution to the same analyte concentration (adjusting ionic strength to 0.15 mol/L). In the case of kynurenic acid, a saturated acidic solution was diluted 10 times with HCl and NaOH, respectively, to obtain the stock solutions. Sample solutions with varying pH were prepared by mixing the two stock solutions in varying ratios. pH values were read on a Metrohm 2.780.0010 precision pH meter with a 6.0258.600 Unitrode glass Pt 1000 electrode (Metrohm AG, Herisau, Switzerland), and the pH-potentiometric system was calibrated using standard buffer solutions.

[3] = cited from earlier work; for pKa (first value) / pKa (second value): no mention of experimental methods
[4] = in vitro parallel permeability assay (PAMPA); assay type: in vitro ADME; details: passive transport only
Description: To further obtain additional information regarding the microspeciation scheme, the synthesis of methyl ester derivatives was attempted since these model compounds could provide the value of microconstants for cases where the carboxylic acid group is undissociated. […] In the first attempt, the compounds were each dissolved with 1-ethyl-3-(3-dimethylaminopropyl)carbodiimide (EDAC) and triethylamine in dichloromethane, and after fifteen minutes, methanol was added to the mixture, which was stirred overnight at room temperature. After this, the solution was washed with saturated sodium bicarbonate solution and distilled water. The organic phase was dried over sodium sulfate and then removed from the rotary evaporator. In the second attempt, the compounds were each dissolved in methanol, and the solution was cooled to 0 °C. Thionyl chloride was added dropwise, and the mixture was stirred at the same temperature for four hours. Then, the solvent was removed from the rotary evaporator, yielding an oily residue. […] The measurement of lipophilicity and membrane penetration of kynurenine and 3-hydroxykynurenine was also attempted; however, due to the extremely low predicted logP value of these compounds, it was not unexpected that obtaining such experimental data would not be feasible. […]

[5] = aqueous HCl solution with KCl, titrated with KOH, unreliable, since two values could not be fitted, read-out: single pKa fitted in the acidic pH region (pH potentiometry titration)
[6] = first step microconstant of the aromatic ammonium group, calculated using Equation (3), read-out: pKa^A
[7] = first step microconstant of the carboxyl group, calculated using Equation (3), read-out: pKa^C
[8] = macroconstant from methylene signal, 298.15 K, ionic strength 0.15 mol/L, read-out: pKa1 (NMR)
[9] = macroconstant from methylene signal, 298.15 K, ionic strength 0.15 mol/L, read-out: pKa2 (NMR)

Nc1c(O)cccc1C(=O)CC(N)C(=O)O (stereo not shown) [3-hydroxykynurenine]
pKa ([1]; aqueous HCl solution with KCl, titrated with KOH, macroconstant, 298.15 K, ionic strength 0.15 mol/L, read-out: pKa3 (potentiometry)): 8.65 | pKa ([1]; aqueous HCl solution with KCl, titrated with KOH, macroconstant, 298.15 K, ionic strength 0.15 mol/L, read-out: pKa4 (potentiometry)): 9.55 | pKa [1, 5]: 2.53 ± 0.03 | pKa [2, 6]: 1.82 | pKa [2, 7]: 1.91 | pKa [2, 8]: 1.56 | pKa [2, 9]: 2.69 | pKaAC^N ([2]; microconstant of the aliphatic ammonium group, phenol still protonated, calculated): 9.08 | pKaAC^O ([2]; microconstant of the phenol group, aliphatic ammonium still protonated, calculated): 8.85 | pKaACN^O (NMR) ([2]; microconstant of the phenol group, basic pH range, fit constrained to exceed mean of pKa3 and pKa4): 9.12 | pKaACO^N (NMR) ([2]; microconstant of the primary aliphatic ammonium group, basic pH range): 9.35 | predominant protonation/charge form at physiological pH [2]: zwitterionic form | pKaC^A (NMR) [2]: 2.34 | pKaA^C (NMR) [2]: 2.43

O=C(O)c1cc(=O)c2ccccc2[nH]1 [kynurenic acid]
concentration that can abolish iron(II) sulfate-induced ROS production (ROS): exceeding 100 µM | pKa ([1]; aqueous HCl solution with KCl, titrated with KOH, value is unreliable due to precipitate formation, read-out: pKa fitted (pH potentiometry titration)): 3.1 ± 0.1 | solubility behaviour during titration ([1]; below pH 3, no issue above pH 3): precipitation | pKa (UV-pH titration (pKa); 10-fold diluted saturated solution, 298 K, ionic strength 0.15 mol/L, read-out: pKa (UV-pH titration, full spectrum measurement)): 2.44 ± 0.02 | pKa (UV-pH titration (pKa); single dissociation step, UV-pH titration, 298 K, ionic strength 0.15 mol/L, read-out: pKa1 (UV)): ~2.4 | pKa1 (UV) (UV-pH titration (pKa); single dissociation step, UV-pH titration, 298 K, ionic strength 0.15 mol/L): 2.43 | pKa of the radical form ([3]; radical form): 5.5 | dissociation step above pH 7 until 13 ([2]; potentiometric and NMR-pH titration attempts): no dissociation step

Nc1ccccc1C(=O)C[C@H](N)C(=O)O [kynurenine]
pKa ([1]; aqueous HCl solution with KCl, titrated with KOH, 298.15 K, ionic strength 0.15 mol/L, read-out: pKa fitted in the basic pH region (pH potentiometry titration)): 9.13 ± 0.02 | pKa [1, 5]: 2.39 ± 0.04 | membrane penetration/retention (PAMPA) [4]: no detectable membrane penetration/retention | pKaC^A (UV-pH titration) (UV-pH titration (pKa); second step dissociation microconstant of the aromatic ammonium group): 2.08 ± 0.2 | pKaA^C (UV-pH titration) (UV-pH titration (pKa); second step dissociation microconstant of the carboxyl group): 2.33 ± 0.05 | pKa [2, 6]: 1.39 | pKa [2, 7]: 1.63 | pKa [2, 8]: 1.19 | pKa [2, 9]: 2.49 | pKa ([2]; macroconstant, aliphatic ammonium, 298.15 K, ionic strength 0.15 mol/L, read-out: pKa3 (NMR)): 9.33 | predominant protonation/charge form at physiological pH [2]: zwitterionic form | pKaC^A (NMR) [2]: 2.05 ± 0.04 and 2.05 | pKaA^C (NMR) [2]: 2.29 ± 0.03 and 2.29

O=C(O)c1ccccn1 [picolinic acid]
pKa ([1]; aqueous HCl solution with KCl, titrated with KOH, triplicate, ± standard error, 298.15 K, ionic strength 0.15 mol/L, read-out: pKa2 (potentiometry)): 5.22 ± 0.01 | pKa ([1]; aqueous HCl solution with KCl, titrated with KOH, extreme acidic pKa of the carboxyl group, rough estimate, single nonlinear curve fit, 298.15 K, ionic strength 0.15 mol/L, read-out: pKa1 (by extrapolation of potentiometry)): ~0.63 | pKa ([1]; aqueous solution, ionic strength 0.15 mol/L, both titration techniques, 298.15 K, ionic strength 0.15 mol/L, read-out: pKa2 (mean of potentiometry and NMR)): ~5.2 | pKa2 (mean of potentiometry and NMR) ([1]; both titration techniques, 298.15 K, ionic strength 0.15 mol/L): 5.21 | pKa1 (by extrapolation of potentiometry) ([1]; extreme acidic pKa of the carboxyl group, rough estimate, single nonlinear curve fit, 298.15 K, ionic strength 0.15 mol/L): ~0.6 | pKa (first value) ([3]; ref 25): 1.0 | pKa (second value) ([3]; ref 25): 5.4 | pKa (first value) ([3]; ref 26): 1.07 | pKa (second value) ([3]; ref 26): 5.25 | pKa ([2]; ± standard error of fit, 298.15 K, ionic strength 0.15 mol/L, H2O/D2O 95:5, read-out: pKa (NMR-pH titration)): 5.19 ± 0.02 | pH of a further dissociation step indicated by shift of NMR signals ([2]; slight systematic shift below pH 1.5, outside the range of determination): < 1
